Assay results as given in US4073910A, “Method for treatment of diabetes” (Eisai Co., Ltd., priority 1975, dated 1978).
Where “and” joins values, the source holds several entries; their conditions need not be identical. Equal entries are not always repeated.

Legend:
[1] = system: alloxan diabetic rats; test: Effect on alloxan diabetes in rats (glycosuria, blood-sugar, urinary volume); assay type: in vivo, male wistar rats; conditions: for restraining effect on quantity of glycosuria: Compound TA 80 mg/Kg, Compound NA 20 mg/Kg p.o. once a day for three weeks; for quantity of blood-sugar versus alloxan diabetic control group (in words): FIGS. 3 and 4, after 24 hours and 12 hours fasting; for effect for treatment of alloxan-diabetes (conclusion): alloxan diabetic rats; for blood-sugar level compared with diabetic control group (summary) / quantity of glycosuria compared with diabetic control group (summary) / urinary volume compared with diabetic control group (summary): summary of experiments
Procedure: Experiments were carried out in six-week male wistar rats weighing approximately 180 g. […] After 10 days, animals displaying abnormal quantity of glycosuria were selected as "diabetic" animals. Abnormality was arbitrarily determined as quantity of glycosuria for 24 hours over 0.5 g. Total 32 alloxan diabetic rats were divided into four aliquot groups of every eight rats at random. […] These rats were placed in the metabolism cage equiped with solid foods and drinking water. The foods were removed after 9 hours, and urine was collected from said rats for 24 hours. In other experience, total 45 alloxan diabetic rats were divided into three groups of aliquot. […] These rats were placed in the metabolism cages equiped with drinking water, and urine was collected for 12 hours. Blood was also collected in each case from the carotid artery of the rats under anesthesia. for the urine and the plasma, the following biochemical tests were effected. (a) Quantity of the blood-sugar and the glycosuria: Anthrone method.

[2] = system: human diabetics (University Group Diabetes Program); conditions: oral administration, 8 years; cited from earlier work
[3] = Test of acute toxicity in mice; assay type: in vivo; conditions: mouse, in vivo
Procedure: (§1) Acute toxicity of Compound TN for males and females of mice rats were tested.

[4] = system: mice; test: Test of acute toxicity in mice; assay type: in vivo; conditions: mice, administerable maximum quantity
Procedure: as §1

[5] = system: diabetics; test: Clinical data: blood sugar and ΔIRI/ΔBS in glucose tolerance test of diabetics; assay type: in vivo, human
Procedure: There were selected 15 diabetics, whose blood-sugar values are 111-150 mg;, respectively. The diabetics are 56.8 years old in average, ranging from 49 to 65 years old. They consist of 10 males and 5 females.
It was previously confirmed that the body weights of the diabetics are almost not varied during the continuation of dietetics.
There were orally administered a daily dose of six capsules for 8 weeks, each capsule containing 100 mg of the Compound TN.
Before and after the administration of the compound of the present invention, 50 g of sugar are orally administered to carry out glucose tolerance test. Quantities of blood-sugar were measured by means of Autoanalyzer with respect to the blood which was collected from the vein of the elbow. Further, quantities of insulin were measured, in accordance with Double antibody technic, before the glucose tolerance and after 30 minutes tolerance. From the following resulting quantities, value of ΔIRI/ΔBS was calculated.

[6] = system: pregnant rats; test: Test for malformation in pregnant rats; assay type: in vivo; conditions: oral, 100 to 1200 mg/Kg
[7] = system: beagles; test: Test of subacute and chronic toxicity in beagles; assay type: in vivo; conditions: 100 mg/Kg, three or six months
[8] = system: rats; test: Test of subacute and chronic toxicity in rats; assay type: in vivo; conditions: 100 to 1000 mg/Kg, three or six months
[9] = system: rats; test: Test of acute toxicity in rats; assay type: in vivo; conditions: rats, administerable maximum quantity
Procedure: as §1

[10] = Test of acute toxicity in rats; assay type: in vivo; conditions: rat, in vivo
Procedure: as §1

[11] = Solubility; assay type: physicochemical
[12] = system: pregnant mice; test: Test for malformation in pregnant mice; assay type: in vivo; conditions: oral, 100 to 1200 mg/Kg
[13] = system: blood-sugar amount; conditions: reported in 1955; cited from earlier work
[14] = FIG. 1, urine for 24 hours, 100 mg/Kg p.o. once a day for three weeks

Compound: O=C(O)c1cccnc1 [Compound NA, nicotinic acid]
- restraining effect on quantity of glycosuria ([1]; FIG. 1, urine for 24 hours): the restraining effect could not be found
- quantity of blood-sugar versus alloxan diabetic control group (in words) ([1]; three weeks p.o.): there can not be found the differences
- effect for treatment of alloxan-diabetes (conclusion) ([1]; three weeks p.o.): such effect can not be found
- blood-sugar level compared with diabetic control group (summary) ([1]; three weeks p.o.): there could not be found the difference
- quantity of glycosuria compared with diabetic control group (summary) ([1]; three weeks p.o.): there could not be found the difference
- urinary volume compared with diabetic control group (summary) ([1]; three weeks p.o.): there could not be found the difference

Compound: CCCCNC(=O)NS(=O)(=O)c1ccc(C)cc1 [Tolbutamide]
- number of deaths due to heart-blood vessel disorder, compared with placebo group [2]: 2.5 times

Compound: Cc1c(C)c2c(c(C)c1OC(=O)c1cccnc1)CCC(C)(CCCC(C)CCCC(C)CCCC(C)C)O2 (racemic) [Compound TN, dl-α-tocopherol nicotinate]
- LD50 ([3]; im): > 15000 mg/kg
- LD50 ([3]; ip): > 4000 mg/kg
- LD50 ([3]; iv): > 1000 mg/kg
- LD50 ([3]; po): > 20000 mg/kg
- LD50 ([3]; sc): > 20000 mg/kg
- deaths in acute toxicity test [4]: there is no case wherein the test animals died
- degree of adiposity ([5]; 15 diabetics, 8 weeks): there could hardly be found a tolerance with respect to the degree of adiposity
- Blood Sugar (2) FBS (fasting blood sugar) ([5]; individual patient, after administration, 600 mg/day p.o. (six 100 mg capsules) for 8 weeks): 114 mg% and 126 mg% and 111 mg% and 124 mg% and 122 mg% and 119 mg% and 123 mg% and 104 mg% and 110 mg% and 121 mg% and 118 mg%
- ΔIRI/ΔBS (30 min.) ([5]; individual patient, after administration, 8 weeks, 30 min. tolerance): 0.39 and 0.31 and 0.38 and 0.36 and 0.41 and 0.33 and 0.42 and 0.45 and 0.44 and 0.35 and 0.49
- Blood Sugar (2) 1 hour ([5]; individual patient, after administration, 8 weeks, 1 hour after 50 g glucose tolerance): 196 mg% and 193 mg% and 178 mg% and 198 mg% and 221 mg% and 201 mg% and 205 mg% and 174 mg% and 164 mg% and 211 mg% and 214 mg% and 195 mg% and 185 mg% and 197 mg%
- Blood Sugar (2) 2 hours ([5]; individual patient, after administration, 8 weeks, 2 hours after 50 g glucose tolerance): 185 mg% and 184 mg% and 164 mg% and 195 mg% and 189 mg% and 178 mg% and 186 mg% and 154 mg% and 179 mg% and 181 mg% and 163 mg% and 172 mg% and 190 mg%
- Blood Sugar (2) 3 hours ([5]; individual patient, after administration, 8 weeks, 3 hours after 50 g glucose tolerance): 136 mg% and 114 mg% and 121 mg% and 179 mg% and 175 mg% and 154 mg% and 171 mg% and 141 mg% and 105 mg% and 172 mg% and 130 mg% and 153 mg%
- Blood Sugar (2) 1 hour, mean ([5]; mean of 15, after administration, 8 weeks, 1 hour tolerance, before administration 226.5, P<0.05): 193.1 mg%
- Blood Sugar (2) 2 hours, mean ([5]; mean of 15, after administration, 8 weeks, 2 hours tolerance, before administration 203.7, P<0.05): 179.3 mg%
- Blood Sugar (2) 3 hours, mean ([5]; mean of 15, after administration, 8 weeks, 3 hours tolerance, before administration 166.1, P<0.05): 145.5 mg%
- ΔIRI/ΔBS (30 min.), mean ([5]; mean of 15, after administration, 8 weeks, before administration 0.319, P<0.001): 0.394
- Blood Sugar (2) FBS, mean ([5]; mean of 15 diabetics, after administration, 8 weeks, before administration 128.1, P<0.001): 116.3 mg%
- effects for mothers, foetuses and neonatal animals [6]: there could not be recognized any effects for mothers, foetuses and neonatal animals
- malformation [6]: no malformation could be entirely found
- appearance of toxicity (hematological, blood biochemical, histological searches) [7]: there could not be entirely recognized the appearance of the toxicity
- death case [7]: There could not be found the death case
- restraint of weight [7]: There could not be found the death case and the restraint of weight
- appearance of toxicity (hematological, blood biochemical, histological searches) [8]: there could not be entirely recognized the appearance of the toxicity
- death case [8]: There could not be found the death case
- restraint of weight [8]: There could not be found the death case and the restraint of weight
- deaths in acute toxicity test [9]: there is no case wherein the test animals died
- LD50 ([10]; im): > 10000 mg/kg
- LD50 ([10]; ip): > 2000 mg/kg
- LD50 ([10]; iv): > 250 mg/kg
- LD50 ([10]; po): > 15000 mg/kg
- LD50 ([10]; sc): > 15000 mg/kg
- solubility in acetone, benzene, chloroform, ether and ethanol ([11]; organic solvents): easily soluble
- solubility in water ([11]; water): hardly soluble
- reduction of quantity of glycosuria versus diabetic control group (mean) [1, 14]: 1.3 g/day
- reduction of quantity of glycosuria versus diabetic control group (percent) [1, 14]: 47%
- quantity of glycosuria ([1]; FIG. 2, urine for 12 hours, p.o. once a day for three weeks, TN 100 mg/Kg or TA 88 + NA 20 mg/Kg, diabetic control 1.24 g/12 hours): 0.76 g/12 hours
- quantity of glycosuria versus diabetic control group (in words) ([1]; FIG. 2, urine for 12 hours, three weeks p.o.): clearly reduced
- urinary volume (in words) ([1]; FIG. 5, after 12 hours, three weeks p.o.): reduces
- quantity of blood-sugar versus alloxan diabetic control group (in words) ([1]; three weeks p.o.): reduces significantly the quantity of the blood-sugar
- effect for treatment of alloxan-diabetes (conclusion) ([1]; three weeks p.o.): unique effect for treatment of alloxan-diabetes
- blood-sugar level compared with diabetic control group (summary) ([1]; three weeks p.o.): small such as P = 0.05
- quantity of glycosuria compared with diabetic control group (summary) ([1]; three weeks p.o.): small such as P = 0.05
- urinary volume compared with diabetic control group (summary) ([1]; three weeks p.o.): small such as P = 0.05
- effects for mothers, foetuses and neonatal animals [12]: there could not be recognized any effects for mothers, foetuses and neonatal animals
- malformation [12]: no malformation could be entirely found

Compound: CCCCNC(=O)NS(=O)(=O)c1ccc(N)cc1 [Carbutamide]
- effect for depressing a blood-sugar amount [13]: remarkable effect for depressing a blood-sugar amount

Compound: CC(=O)Oc1c(C)c(C)c2c(c1C)CCC(C)(CCCC(C)CCCC(C)CCCC(C)C)O2 (racemic) [Compound TA, dl-α-tocopheryl acetate]
- restraining effect on quantity of glycosuria ([1]; FIG. 1, urine for 24 hours): the restraining effect could not be found
- quantity of blood-sugar versus alloxan diabetic control group (in words) ([1]; three weeks p.o.): there can not be found the differences
- effect for treatment of alloxan-diabetes (conclusion) ([1]; three weeks p.o.): such effect can not be found
- blood-sugar level compared with diabetic control group (summary) ([1]; three weeks p.o.): there could not be found the difference
- quantity of glycosuria compared with diabetic control group (summary) ([1]; three weeks p.o.): there could not be found the difference
- urinary volume compared with diabetic control group (summary) ([1]; three weeks p.o.): there could not be found the difference

Compound: [H]/N=C(/N)N/C(=N/[H])NCCc1ccccc1 [Phenformin]
- number of deaths due to heart-blood vessel disorder, compared with placebo group [2]: 2.5 times
